{"source": "patent US11629192B2", "about": "“Methods and pharmaceutical compositions for the treatment of diseases mediated by the NRP-1/OBR complex signaling pathway” (INSERM (Institut National de la Sante et de la Recherche …, priority 2014, dated 2023)", "key": {"[1]": {"tested_on": "T47D-NRP-1-RFP xenografts", "assay": "T47D-NRP-1-RFP xenografts in Nude mice", "assay_type": "in vivo", "from_the_text": "(§1) First MBA-MB-231 and T47D breast cancer cells line were selected for their high and undetectable NRP-1 expression respectively and the expression of Leptin receptor (OBR). In order to investigate NRP-1 and Leptin association in breast cancer cell line migration, we proceeded to NRP-1 expression silencing in MDA-MB-231 using either siRNA or shRNA approaches or NRP-1 overexpression in T47D. […] In contrast Leptin induced MDA-MB-231 migration that was decreased in siNRP-1 conditions. The in vitro data were confirmed in vivo by MDA-MB-231 and T47D xenografts in Nude mice. Modulation of NRP-1 expression either by shRNA silencing in MDA-MB-231 or by overexpression in T47D induced an increase of proliferation and a decrease of lymph node infiltration by MDA-MB-231-shNRP-1 and a decrease of proliferation and an increase of lymph node infiltration by T47D-NRP-1-RFP in mice treated with Leptin.\nThis need to be more investigated and may be a new strategy for combined anti-Leptin and anti-VEGF therapies in breast cancer. […] In vitro and in vivo data are a direct evidence of NRP-1 and Leptin association in breast cancer cell line migration. This implication of Leptin and NRP-1 are in agreement of published data but with no association between Leptin and NRP-1. […]"}, "[2]": {"target": "Human neuropilin-1 (hNRP-1) (Homo sapiens, UniProt O14786)", "assay": "Bio-Layer Interferometry (BLI) interaction with hNRP-1", "assay_type": "binding", "from_the_text": "FIG. 5. NRP-1, OBR and leptin interactions confirmation using a Bio-Layer Interferometry (BLI) technology (fortebio.com/bli-technology.html): A-Leptin (OB) interaction to OBR is used as a positive control. Human neuropilin-1 (hNRP-1) interact with human OBR with a high affinity and specifically with human leptin (hOB) but not with murine leptin (mOB). VEGF165 binding to hNRP-1 is used as a positive control. B-Leptin and Avastin association increases MDA-MB231 cells transmigration through […] pore Insert. Avastin treatment may prevent a negative feedback control by VEGF of the pro-angiogenic signaling pathway of Leptin. VEGF binds to OBR which confirms our hypothesis that should be more investigated."}, "[3]": {"tested_on": "MDA-MB-231-shNRP-1 xenografts", "assay": "MDA-MB-231 xenografts in Nude mice", "assay_type": "in vivo", "details": "Leptin treatment, KL1 staining", "from_the_text": "as §1\nThis need to be more investigated and may be a new strategy for combined anti-Leptin and anti-VEGF therapies in breast cancer. […] In vitro and in vivo data are a direct evidence of NRP-1 and Leptin association in breast cancer cell line migration. This implication of Leptin and NRP-1 are in agreement of published data but with no association between Leptin and NRP-1."}}, "data": [{"substance": "Leptin: small non glycosylated protein, ligand of OBR", "values": [{"measurement": "lymph node infiltration by T47D-NRP-1-RFP", "setting": "[1]; Leptin treatment, human KL1 staining", "result": "significantly increased"}, {"measurement": "tumor growth", "setting": "[1]; T47D overexpressing NRP-1 xenograft treated with Leptin", "result": "tumor growth decrease"}, {"measurement": "interaction with hNRP-1", "setting": "[2]", "result": "interact"}, {"measurement": "lymph node infiltration by MDA-MB-231-shNRP-1", "setting": "[3]", "result": "did not increase"}]}]}
